Test results taken from patent publication US20110130450A1, “PRAVASTATIN EXTRACTION” (priority 2008, published 2011).

Key:
Type in all cases: physicochemical
[1] = Batch-wise single stage back-extraction from ethyl acetate into water, distribution coefficient by HPLC
Method: (§1) HPLC analysis was based on reversed phase liquid chromatography followed by UV-detection at 238 nm. Apparatus: Dionex HPLC-UV system comprising of a P680 pump, a TCC-100 column compartment with thermostat, a WPS-3000 auto sampler and a UVD34OU PDA detector.
(§2) pH values mentioned in the description and claims of the present application were measured using a Radiometer PHM82 standard pH meter equipped with a Mettler Toledo Inlab 412 pH electrode (electrolyte 9823). Equilibration was carried out at 20±1° C. using a Merck pH 4.00 buffer (art. nr. 1.09435.1000) and a Merck pH 7.00 buffer (art. nr. 1.09439.1000).
A broth obtained by fermentation of Penicillium chrysogenum transformant T1.48 as described in Example 4 of WO 2007/147827 (2 liter, containing 2.5 g/kg pravastatin and 0.8 g/kg compactin) was centrifuged and the supernatant was divided into 2 portions of 800 ml. One of these portions of supernatant (800 ml), ethyl acetate (800 ml) and dicalite 448 (20 g) were mixed and the pH was adjusted to 4 with 6N sulfuric acid. The mixture was filtered over a Seitz Z-2000 filter plate. The phases of the filtrate were separated and the organic phase was washed once with water (400 ml), giving an ethyl acetate extract (700 ml) which was divided into eight portions of 80 ml and one of 60 ml. Each portion was mixed with an equal volume of water at a certain pH, varying from 4.5 to 8. After mixing, the phases were separated and analyzed by HPLC.

[2] = Batch-wise single stage back-extraction from methyl isobutyl ketone into water, distribution coefficient by HPLC
Method: as §1, §2
One of the portions of supernatant (800 ml) obtained in Example 1, methyl isobutyl ketone (800 ml) and dicalite 448 (20 g) were mixed and the pH was adjusted to 4 with 6N sulfuric acid. The mixture was filtered over a Seitz Z-2000 filter plate. The phases of the filtrate were separated and the organic phase was washed once with water (400 ml), giving a methyl isobutyl ketone extract (750 ml) from which eight portions of 80 ml were taken. Each portion was mixed with an equal volume of water at a certain pH, varying from 4.5 to 8. After mixing, the phases were separated and analyzed by HPLC.

[3] = Multi stage cross-current back-extraction from isobutyl acetate at pH 6, distribution coefficient by HPLC; conditions: water/isobutyl acetate
Method: as §1, §2
Starting material for this experiment was broth filtrate, obtained after ultra-filtration of broth obtained by fermentation of Penicillium chrysogenum transformant T1.48 as described in Example 4 of WO 2007/147827 using a 50 nm poly-sulfone membrane. The filtrate (2 liter, containing 1.2 g/l pravastatin and 0.37 g/l compactin) was extracted twice with isobutyl acetate (2×1 liter) at pH 4. For a clear phase separation, the organic phases were filtered through a Seitz Z-2000 filter plate. The organic phases were combined and washed with water (500 ml), giving isobutyl acetate extract (1960 ml) which was concentrated to 100 ml under vacuum at T<40° C. The concentrate was decolorized using a coal cartridge filled with Cuno C55 carbon (1.8 g carbon; diameter of carbon plate 18 cm^2). After rinsing a clear solution (150 ml) was obtained containing ˜12 g/l pravastatin and 3.8 g/l compactin. This solution was extracted three times with water (3×150 ml) at pH 6. The pH was adjusted with 25% ammonia. The aqueous and organic phases were analyzed with HPLC (Table 3). As can be calculated, after the second back-extraction the total extraction yield of pravastatin in the combined aqueous phases was 97.6% pravastatin and after the third back-extraction the total extraction yield of pravastatin in the combined aqueous phases was 99.6%. The ratio pravastatin:compactin was 3:1 in the starting mixture, 45:1 after one back-extraction, 25:1 after two back-extractions and 17:1 after three back-extractions.

[4] = Multi stage cross-current back-extraction from ethyl acetate at pH 5.9, distribution coefficient by HPLC; conditions: water/ethyl acetate
Method: as §1, §2
Starting material for this experiment was broth filtrate, obtained after ultra-filtration of broth obtained by fermentation of Penicillium chrysogenum transformant T1.48 as described in Example 4 of WO 2007/147827 using a 50 nm poly-sulfone membrane. The filtrate (5.25 liter, containing 1.2 g/l pravastatin and 0.37 g/l compactin) was extracted twice with ethyl acetate (2×2.5 liter) at pH 4. For a clear phase separation, the organic phases were filtered through a Seitz Z-2000 filter plate. The extraction yields were 90.6% and 8.3% respectively, so the overall extraction yield was 98.9%. The organic phases were combined and washed with water (2.5 liter), giving ethyl acetate extract (4.65 liter, yield over the wash step 97%) which was concentrated to 250 ml under vacuum at T<40° C., giving a clear solution containing ˜25 g/l pravastatin. This solution was extracted three times with water (3×250 ml) at pH 5.9. The pH was adjusted with 4N sodium hydroxide. The aqueous and organic phases were analyzed with HPLC (Table 4). As can be calculated, after the second back-extraction the total extraction yield of pravastatin in the combined aqueous phases was 91% pravastatin and after the third back-extraction the total extraction yield of pravastatin in the combined aqueous phases was 96%. The ratio pravastatin:compactin was 3:1 in the starting mixture, 26:1 after one back-extraction, 19:1 after two back-extractions and 17:1 after three back-extractions.

For `CC[C@H](C)C(=O)O[C@H]1C[C@H](O)C=C2C=C[C@H](C)[C@H](CC[C@@H](O)C[C@@H](O)CC(=O)[O-])[C@H]21.[Na+]` [Prava, pravastatin], the “Distribution coefficient (CAqueous phase/COrganic phase)” value ([1]; pH 4.5) was 0.1, the “Distribution coefficient (CAqueous phase/COrganic phase)” value ([1]; pH 5) was 0.2 and the “Distribution coefficient (CAqueous phase/COrganic phase)” value ([1]; pH 5.5) was 0.4. For the same compound, the “Distribution coefficient (CAqueous phase/COrganic phase)” value ([1]; pH 6) was 1.2, the “Distribution coefficient (CAqueous phase/COrganic phase)” value ([1]; pH 6.25) was 1.9 and the “Distribution coefficient (CAqueous phase/COrganic phase)” value ([1]; pH 6.5) was 3.5. The “Distribution coefficient (CAqueous phase/COrganic phase)” value ([1]; pH 7) was 10.3, the “Distribution coefficient (CAqueous phase/COrganic phase)” value ([1]; pH 7.5) was 27.4 and the “Distribution coefficient (CAqueous phase/COrganic phase)” value ([1]; pH 8) was 94.1. The “Distribution coefficient (CAqueous phase/COrganic phase)” value ([2]; pH 4.5) was 0.2, the “Distribution coefficient (CAqueous phase/COrganic phase)” value ([2]; pH 5) was 0.2 and the “Distribution coefficient (CAqueous phase/COrganic phase)” value ([2]; pH 5.5) was 0.6. For the same compound, the “Distribution coefficient (CAqueous phase/COrganic phase)” value ([2]; pH 6) was 1.4, the “Distribution coefficient (CAqueous phase/COrganic phase)” value ([2]; pH 6.5) was 4.0 and the “Distribution coefficient (CAqueous phase/COrganic phase)” value ([2]; pH 7) was 12.0. The “Distribution coefficient (CAqueous phase/COrganic phase)” value ([2]; pH 7.5) was 37.5, the “Distribution coefficient (CAqueous phase/COrganic phase)” value ([2]; pH 8) was 83.8 and the “Distribution coefficient (CAqueous phase/COrganic phase)” value ([3]; pH 6, 1st extraction) was 4.8. For the same compound, the “Distribution coefficient (CAqueous phase/COrganic phase)” value ([3]; pH 6, 2nd extraction) was 5.9, the “Distribution coefficient (CAqueous phase/COrganic phase)” value ([3]; pH 6, 3rd extraction) was 5.2 and the “Distribution coefficient (CAqueous phase/COrganic phase)” value ([4]; pH 5.9, 1st extraction) was 1.5. The “Distribution coefficient (CAqueous phase/COrganic phase)” value ([4]; pH 5.9, 2nd extraction) was 1.9 and the “Distribution coefficient (CAqueous phase/COrganic phase)” value ([4]; pH 5.9, 3rd extraction) was 0.7.
In the case of `CC[C@H](C)C(=O)O[C@H]1CCC=C2C=C[C@H](C)[C@H](CC[C@@H](O)C[C@@H](O)CC(=O)[O-])[C@H]21.[Na+]` [Comp, compactin], the “Distribution coefficient (CAqueous phase/COrganic phase)” value ([1]; pH 4.5) is reported as 0.0, the “Distribution coefficient (CAqueous phase/COrganic phase)” value ([1]; pH 5) is reported as 0.0 and the “Distribution coefficient (CAqueous phase/COrganic phase)” value ([1]; pH 5.5) is reported as 0.0. The “Distribution coefficient (CAqueous phase/COrganic phase)” value ([1]; pH 6) was 0.0, the “Distribution coefficient (CAqueous phase/COrganic phase)” value ([1]; pH 6.25) was 0.0 and the “Distribution coefficient (CAqueous phase/COrganic phase)” value ([1]; pH 6.5) was 0.1. The “Distribution coefficient (CAqueous phase/COrganic phase)” value ([1]; pH 7) was 0.3, the “Distribution coefficient (CAqueous phase/COrganic phase)” value ([1]; pH 7.5) was 0.8 and the “Distribution coefficient (CAqueous phase/COrganic phase)” value ([1]; pH 8) was 2.9. For the same compound, the “Distribution coefficient (CAqueous phase/COrganic phase)” value ([2]; pH 4.5) was 0.0, the “Distribution coefficient (CAqueous phase/COrganic phase)” value ([2]; pH 5) was 0.0 and the “Distribution coefficient (CAqueous phase/COrganic phase)” value ([2]; pH 5.5) was 0.0. For the same compound, the “Distribution coefficient (CAqueous phase/COrganic phase)” value ([2]; pH 6) was 0.0, the “Distribution coefficient (CAqueous phase/COrganic phase)” value ([2]; pH 6.5) was 0.1 and the “Distribution coefficient (CAqueous phase/COrganic phase)” value ([2]; pH 7) was 0.2. For the same compound, the “Distribution coefficient (CAqueous phase/COrganic phase)” value ([2]; pH 7.5) was 0.9, the “Distribution coefficient (CAqueous phase/COrganic phase)” value ([2]; pH 8) was 3.3 and the “Distribution coefficient (CAqueous phase/COrganic phase)” value ([3]; pH 6, 1st extraction) was 0.06. For the same compound, the “Distribution coefficient (CAqueous phase/COrganic phase)” value ([3]; pH 6, 2nd extraction) was 0.07, the “Distribution coefficient (CAqueous phase/COrganic phase)” value ([3]; pH 6, 3rd extraction) was 0.07 and the “Distribution coefficient (CAqueous phase/COrganic phase)” value ([4]; pH 5.9, 1st extraction) was 0.08. The “Distribution coefficient (CAqueous phase/COrganic phase)” value ([4]; pH 5.9, 2nd extraction) was 0.06 and the “Distribution coefficient (CAqueous phase/COrganic phase)” value ([4]; pH 5.9, 3rd extraction) was 0.03.
